In patent US7192572B2, “Compound delivery systems” (Conopco, Inc., priority 2002, dated 2007):

Assay: cooling effect perceived on ingestion of the example compositions (microemulsion tea beverage, water ice, toothpaste)
Format: in vivo, human
Settings: ingestion in the form of the compositions of Examples 1-3, relative to the same amount of the cooling active alone

SMILES	cooling effect perceived
CC1CCC(C(C)C)C(O)C1 (centres unmarked) [menthol, 2-isopropyl-5-methyl-cyclohexanol]	prolonged the cooling effect perceived
COc1ccccc1N1CC=C(c2cccc([N+](=O)[O-])c2)NC1=O [1-(2′-methoxyphenyl)-4-(3″-nitrophenyl)-1,2,3,6-tetrahydropyrimidine-2-one]	prolonged the cooling effect perceived
